The values that follow come from patent publication US20250179033A1 (priority 2021, published 2025).

Like-named read-outs stand apart in the source and are kept apart here.

What all share (assay type): cell-based
In one data set the test system is HIV-1 IIIB (wild-type). Nature of the data set: HIV inhibition assay in TZM-bl cells, wild-type. Conditions: Human immunodeficiency virus 1, IIIB, read-out: IC50 (TZM, WT). As for the experimental part: (§1) Cells and virus culture: TZM-bl cells (42), HIV-1 IIIB virus (43-45) and HIV-1 IIIB (A17 variant) virus (46) as well are the NNRTI resistant mutants (strain NL4-3) (47) were obtained from the NIH HIV Reagent Program. H9 [derivative of HuT 78]cells (ATCC® HTB176™) were obtained from the American Type Culture Collection (Manassas, Virginia, United States of America). These viruses were grown in H9 cells to high titer, which was tested using a HIV p24 (high sensitivity) The detection kit used was sold under the tradename ALPHALISA® Detection Kit (PerkinElmer, Waltham, Massachusetts, United States of America). The viruses were concentrated using Lenti-X Concentrator (Takara Bio USA, Inc., Mountain View, California, United States of America). Infections of TZM-bl cells with either virus was facilitated with 15 μg/mL DEAE-dextran.
(§2) Compounds were serially diluted starting with 10 mM stocks in DMSO. DMSO concentrations were kept the same for all dilutions used within an assay (either 0.005% or 0.05% depending on highest concentration used). Duplicate 96-well plates were set up with 25 μL compound dilution, 25 μL virus, and 50 μL TZM-bl cells (2×10^5/mL) with DEAE-dextran and incubated at 37° C. 5% CO2 for 48 hr. All compounds were tested in triplicate, with single wells of efavirenz dilutions on each plate. All plates had 3-5 control wells without compound, 1 control well with no cells, and 1 control well with a highly toxic level of DMSO (9%). Inhibition assays were set up in clear tissue-culture treated plates with lysates moved to black assay plates or were set up in black tissue culture-treated plates. Medium was removed and the cells were lysed with Glo Lysis Buffer (Promega, Madison, Wisconsin, United States of America). Luciferase Assay System reagent (Promega, Madison, Wisconsin, United States of America) was added to cells and relative light units (RLU) was measured using an EnSpire instrument (PerkinElmer, Waltham, Massachusetts, United States of America). Toxicity assays were set up in clear tissue culture-treated plates. CellTiter-Blue Cell Viability Assay reagent (Promega) was added to the wells after 46 hr incubation, followed by 2 hr incubation. Sodium lauryl sulfate was added to 1.5% to stop the reaction and the plates were measured for fluorescence (560 nmEx/590 nmEm) using an EnSpire instrument (PerkinElmer, Waltham, Massachusetts, United States of America).

The subject of data set [1] is HIV-1 IIIB A17 variant (Y181C/K103N). Nature of the data set: HIV inhibition assay in TZM-bl cells, A17 variant. The settings on record: Human immunodeficiency virus 1, IIIB, TZM-bl, read-out: IC50 (TZM, A17), Table 3, TZM-bl, ± SEM, minimum 6 replicates. As for the experimental part: as §1, §2
Another data set has as its system TZM-bl cells. Briefly: Toxicity assay in TZM-bl cells. The protocol: as §2
[2] abbreviates: Table 3, TZM-bl, ± SEM, minimum 6 replicates.

On to `N#Cc1ccc(Nc2nc(N)n(S(=O)(=O)c3c(Cl)nc4sccn34)n2)cc1Cl` [Compound 11, 4-[[5-amino-1-(6-chloroimidazo[2,1-b]thiazol-5-yl)sulfonyl-1,2,4-triazol-3-yl]amino]-2-chloro-benzonitrile], for which the IC50 with HIV-1 IIIB (wild-type) came out at 0.00098 ± 0.000245 µM; in data set [1], 0.175 ± 0.178 µM. Besides, in the data set on TZM-bl cells (Table 3, TZM-bl), the “Qualitative Cell Toxicity within inhibition range” value is recorded as “Low”.

As for `N#Cc1ccc(Nc2nc(N)n(S(=O)(=O)c3cccc4nc(Cl)ccc34)n2)c(Cl)c1` [Compound 46, 4-[[5-amino-1-[(2-chloro-5-quinolyl)sulfonyl]-1,2,4-triazol-3-yl]amino]-3-chloro-benzonitrile], the values for the IC50 (in the data set with HIV-1 IIIB (wild-type) (setting [2]); in data set [1]) were 0.394 ± 0.264 µM and more than 1 µM, respectively. Besides, in the data set on TZM-bl cells, the “Qualitative Cell Toxicity within inhibition range” value is given as “None”.

For `Cc1nc(-c2ccc(S(=O)(=O)n3nc(Nc4ccc(C#N)cc4)nc3N)s2)cs1` [Compound 52], the IC50 is 0.00214 ± 0.000812 µM in the data set on HIV-1 IIIB (wild-type) (setting [2]) and more than 1 µM in data set [1]. The “Qualitative Cell Toxicity within inhibition range” value in the data set with TZM-bl cells is “None”.

`N#Cc1ccc(Nc2nc(N)n(S(=O)(=O)c3cccc(C#N)c3)n2)cc1` [Compound 9, 3-[[5-amino-3-(4-cyanoanilino)-1,2,4-triazol-1-yl]sulfonyl]benzonitrile]: the results for the IC50 (in the data set on HIV-1 IIIB (wild-type) (setting [2]); in data set [1]) were 0.105 ± 0.0243 µM and 0.709 ± 0.331 µM, respectively. The “Qualitative Cell Toxicity within inhibition range” value in the data set on TZM-bl cells is reported as “None”.

On to `N#CCc1ccc2c(S(=O)(=O)n3nc(Nc4ccc(C#N)c(Cl)c4)nc3N)cccc2c1` [Compound 16, 4-[[5-amino-1-[[6-(cyanomethyl)-1-naphthyl]sulfonyl]-1,2,4-triazol-3-yl]amino]-2-chloro-benzonitrile], for which the concentration for half-maximal inhibition (IC50) in the data set on HIV-1 IIIB (wild-type) was found to be 0.000598 ± 0.000105 µM; in data set [1], 0.153 ± 0.0592 µM. In addition, the “Qualitative Cell Toxicity within inhibition range” value in the data set on TZM-bl cells (Table 3, TZM-bl) is “None”.

Regarding `COc1ccc(Cl)cc1S(=O)(=O)n1nc(Nc2ccc(Cl)cc2)nc1N` [Compound 38, 1-(5-chloro-2-methoxy-phenyl)sulfonyl-N3-(4-chlorophenyl)-1,2,4-triazole-3,5-diamine], the IC50 is 0.177 ± 0.0731 µM in the data set with HIV-1 IIIB (wild-type) (setting [2]) and more than 1 µM in data set [1]. Further, in the data set on TZM-bl cells, the “Qualitative Cell Toxicity within inhibition range” value is reported as “None”.

For the compound `Nc1nc(Nc2ccc(Cl)cc2)nn1S(=O)(=O)c1cnc(Cl)c(Br)c1` [Compound 29, 1-[(5-bromo-6-chloro-3-pyridyl)sulfonyl]-N3-(4-chlorophenyl)-1,2,4-triazole-3,5-diamine], in the data set on HIV-1 IIIB (wild-type) (setting [2]), the half-inhibitory concentration (IC50) was 0.0143 ± 0.00727 µM. Further, the “Qualitative Cell Toxicity within inhibition range” value in the data set with TZM-bl cells is “None”.

Regarding `Nc1nc(Nc2ccc(Cl)c(Cl)c2)nn1S(=O)(=O)c1cccc2ccccc12` [Compound 22, N3-(3,4-dichlorophenyl)-1-(1-naphthylsulfonyl)-1,2,4-triazole-3,5-diamine], the half-inhibitory concentration (IC50) in the data set on HIV-1 IIIB (wild-type) was 0.00468 ± 0.000572 µM; in data set [1], more than 1 µM. Moreover, the “Qualitative Cell Toxicity within inhibition range” value in the data set with TZM-bl cells (Table 3, TZM-bl) was “None”.

Regarding `C=CC(=O)Nc1cc(C)c(S(=O)(=O)n2nc(Nc3ccc(Cl)cc3)nc2N)c(C)c1` [Compound 26, N-[4-[[5-amino-3-(4-chloroanilino)-1,2,4-triazol-1-yl]sulfonyl]-3,5-dimethyl-phenyl]prop-2-enamide], in the data set on HIV-1 IIIB (wild-type) (setting [2]), the IC50 amounted to 0.00578 ± 0.000476 µM. Also, in the data set with TZM-bl cells, the “Qualitative Cell Toxicity within inhibition range” value was “None”.

Regarding `N#Cc1ccc(Nc2nc(N)n(S(=O)(=O)c3c(Cl)nc4sccn34)n2)cc1C#N` [Compound 51, 4-[[5-amino-1-(6-chloroimidazo[2,1-b]thiazol-5-yl)sulfonyl-1,2,4-triazol-3-yl]amino]-phthalonitrile], the IC50 was 0.000223 ± 5.5e-05 µM in the data set on HIV-1 IIIB (wild-type) (setting [2]) and more than 1 µM in data set [1]. Further, the “Qualitative Cell Toxicity within inhibition range” value in the data set with TZM-bl cells is recorded as “None”.

Turning to `C=CC(=O)N(C)c1ccc(S(=O)(=O)n2nc(Nc3ccc(C#N)cc3)nc2N)cc1` [Compound 24, N-[4-[[5-amino-3-(4-cyanoanilino)-1,2,4-triazol-1-yl]sulfonyl]phenyl]-N-methyl-prop-2-enamide], the IC50 with HIV-1 IIIB (wild-type) (setting [2]) worked out at 0.00788 ± 0.000643 µM. The “Qualitative Cell Toxicity within inhibition range” value in the data set with TZM-bl cells was “None”.

Consider `N#CCc1ccc(Nc2nc(N)n(S(=O)(=O)c3cccc4cc(C#N)ccc34)n2)cc1` [Compound 13, 5-[[5-amino-3-[4-(cyanomethyl)anilino]-1,2,4-triazol-1-yl]sulfonyl]naphthalene-2-carbonitrile], for which the IC50 with HIV-1 IIIB (wild-type) (setting [2]) came out at 0.000277 ± 3.67e-05 µM; in data set [1] it was 0.0429 ± 0.0347 µM. Also, the “Qualitative Cell Toxicity within inhibition range” value in the data set on TZM-bl cells is on record as “None”.

As for `Cc1nc(C)c(S(=O)(=O)n2nc(Nc3ccc(Cl)cc3)nc2N)s1` [Compound 36, N3-(4-chlorophenyl)-1-(2,4-dimethylthiazol-5-yl)sulfonyl-1,2,4-triazole-3,5-diamine], the IC50 with HIV-1 IIIB (wild-type) (setting [2]) is 0.0441 ± 0.0128 µM; in data set [1], more than 1 µM. Moreover, in the data set with TZM-bl cells, the “Qualitative Cell Toxicity within inhibition range” value is given as “None”.

Take `Nc1nc(Nc2ccc(Cl)cc2)nn1S(=O)(=O)CCN1C(=O)c2ccccc2C1=O` [Compound 35, 2-[2-[[5-amino-3-(4-chloroanilino)-1,2,4-triazol-1-yl]sulfonyl]ethyl]isoindoline-1,3-dione]: the IC50 in the data set on HIV-1 IIIB (wild-type) (setting [2]) is 0.0143 ± 0.00727 µM. In the data set with TZM-bl cells, the “Qualitative Cell Toxicity within inhibition range” value was “None”.

Turning to `N#Cc1cccc(S(=O)(=O)n2nc(Nc3c(Cl)cc(Cl)cc3Cl)nc2N)c1` [Compound 43, 3-[[5-amino-3-(2,4,6-trichloroanilino)-1,2,4-triazol-1-yl]sulfonyl]benzonitrile], the IC50 with HIV-1 IIIB (wild-type) (setting [2]) is 0.0337 ± 0.00993 µM; in data set [1], more than 1 µM. The “Qualitative Cell Toxicity within inhibition range” value in the data set with TZM-bl cells is listed as “None”.

For the compound `N#Cc1ccc(Nc2nc(N)n(S(=O)(=O)c3ccc4ccccc4c3)n2)cc1Cl` [Compound 3, 4-[[5-amino-1-(2-naphthylsulfonyl)-1,2,4-triazol-3-yl]amino]-2-chloro-benzonitrile], the concentration for half-maximal inhibition (IC50) with HIV-1 IIIB (wild-type) was determined as 0.00157 ± 0.00019 µM; in data set [1], 0.573 ± 0.13 µM. Also, the “Qualitative Cell Toxicity within inhibition range” value in the data set with TZM-bl cells (Table 3, TZM-bl) is “None”.

As for `Nc1nc(Nc2ccc(Cl)cc2)nn1S(=O)(=O)c1ccc(F)c(F)c1F` [Compound 39, N3-(4-chlorophenyl)-1-(2,3,4-trifluorophenyl)sulfonyl-1,2,4-triazole-3,5-diamine], the IC50 in the data set with HIV-1 IIIB (wild-type) (setting [2]) is 0.575 ± 0.104 µM; in data set [1], more than 1 µM. The “Qualitative Cell Toxicity within inhibition range” value in the data set with TZM-bl cells is “None”.

As to `CN(C)c1cccc2c(S(=O)(=O)n3nc(Nc4ccc(Cl)cc4)nc3N)cccc12` [Compound 23, N3-(4-chlorophenyl)-1-[[5-(dimethylamino)-1-naphthyl]sulfonyl]-1,2,4-triazole-3,5-diamine], the IC50 is 0.0103 ± 0.00201 µM in the data set with HIV-1 IIIB (wild-type) (setting [2]) and more than 1 µM in data set [1]. In the data set on TZM-bl cells, the “Qualitative Cell Toxicity within inhibition range” value is on record as “None”.

Regarding `CC(=O)N1CCc2cc(S(=O)(=O)n3nc(Nc4ccc(Cl)cc4)nc3N)ccc21` [Compound 34, 1-[5-[[5-amino-3-(4-chloroanilino)-1,2,4-triazol-1-yl]sulfonyl]indolin-1-yl]ethanone], in the data set on HIV-1 IIIB (wild-type) (setting [2]), the 50% inhibitory concentration (IC50) came out at 0.0926 ± 0.0155 µM. In the data set on TZM-bl cells, the “Qualitative Cell Toxicity within inhibition range” value was “None”.

With `Cn1cnc(S(=O)(=O)n2nc(Nc3ccc(Cl)cc3)nc2N)c1` [Compound 28, N3-(4-chlorophenyl)-1-(1-methylimidazol-4-yl)sulfonyl-1,2,4-triazole-3,5-diamine], in the data set with HIV-1 IIIB (wild-type) (setting [2]), the concentration for half-maximal inhibition (IC50) was 0.0837 ± 0.0193 µM. Also, in the data set on TZM-bl cells, the “Qualitative Cell Toxicity within inhibition range” value was “None”.

For `Cc1cc(C)c(Nc2nc(N)n(S(=O)(=O)c3ccc(Br)c(C)c3)n2)c(C)c1` [Compound 31, 1-(4-bromo-3-methyl-phenyl)sulfonyl-N3-(2,4,6-trimethylphenyl)-1,2,4-triazole-3,5-diamine], the concentration for half-maximal inhibition (IC50) in the data set with HIV-1 IIIB (wild-type) (setting [2]) stood at 0.0194 ± 0.00367 µM. Moreover, the “Qualitative Cell Toxicity within inhibition range” value with TZM-bl cells is recorded as “None”.

With `Nc1nc(Nc2ccc(Cl)cc2)nn1S(=O)(=O)c1ccc2cc(Cl)ccc2c1` [Compound 25, 1-[(6-chloro-2-naphthyl)sulfonyl]-N3-(4-chlorophenyl)-1,2,4-triazole-3,5-diamine], the IC50 in the data set on HIV-1 IIIB (wild-type) (setting [2]) was 0.00454 ± 0.00033 µM. In addition, the “Qualitative Cell Toxicity within inhibition range” value in the data set on TZM-bl cells is “None”.

`Nc1nc(Nc2ccc(Cl)cc2)nn1S(=O)(=O)c1ccc(-c2ccc(F)cc2)cc1` [Compound 30, N3-(4-chlorophenyl)-1-[4-(4-fluorophenyl)phenyl]sulfonyl-1,2,4-triazole-3,5-diamine]: the IC50 in the data set on HIV-1 IIIB (wild-type) (setting [2]) was found to be 0.0215 ± 0.00442 µM. The “Qualitative Cell Toxicity within inhibition range” value in the data set with TZM-bl cells is “None”.
